Results from patent publication US20080207694A1, “Hydroxamates as Histone Deacetylase Inhibitors and Pharmaceutical Formulations Containing Them” (priority 2005, published 2008).
pIC50: −log10 of the molar value.

Tests used:
[1] = tested on: Human colon carcinoma cells HCT-116; experiment: Cytotoxic activity on culture of human colon carcinoma cells HCT-116 (Alamar Blue); assay type: cell-based; conditions: HCT-116 cells, 72 hours after addition of compounds, Alamar Blue viability
Method: (§1) The activity of the compounds as histone deacetylase (HDAC) inhibitors was measured using an in vitro acetylation assay. The compounds were then evaluated as inhibitors of proliferation of human tumor cell cultures.
24 hours after seeding, the compounds at different concentrations are added. […] 72 hours after addition of the compounds, cell viability is measured by means of the dye Alamar Blue.

[2] = tested on: histone deacetylase (HDAC), nuclear extract of Hela cells; experiment: Deacetylase activity on nuclear extract of HeLa cells (Fluor de Lys kit); assay type: biochemical, human; conditions: percent inhibition relative to control without inhibitor, compound at 0.1 μM
Method: as §1
Deacetylase Activity on Nuclear Extract of Hela Cells (Human Cervical Cancer Cell)
The assay (Fluor de Lys™ kit, BioMol) is divided into two steps: in the first step the substrate which comprises an acetylated lysine residue is reacted with the nuclear extract (HeLa) containing the enzymatic activity in the presence and absence of inhibitors. In the second step a fluorogenic reagent is added which highlights the deacetylated residues. A reduction in fluorescence is obtained where there has been inhibition of the deacetylase activity. The result is finally expressed as percent inhibition relative to the control without inhibitor at a concentration of 0.1 μM.

For `N[C@@H](CC(=O)N1CCC(CCCC(=O)NO)CC1)c1ccc2ccccc2c1` [Ex 149, 4-[1-(3-(S)-Amino-3-naphthalen-2-yl-propionyl)-piperidin-4-yl]-N-hydroxy-butyramide], the pIC50 [1] was 6.89 and the “% inhib. 0.1 μM” value [2] was 62%.

With `O=C(CCCC1CCN(C(=O)Nc2cccc(-c3ccccc3)c2)CC1)NO` [Ex 150, 4-(3-Hydroxycarbamoyl-propyl)-piperidine-1-carboxylic acid biphenyl-3-ylamide] the pIC50 ([1]; Homo sapiens, HCT-116, 72 h) was 6.74 and the “% inhib. 0.1 μM” value [2] was 57%.

`O=C(CCCC1CCN(C(=O)Nc2ccc(-c3ccccn3)cc2)CC1)NO` [Ex 151, 4-(3-Hydroxycarbamoyl-propyl)-piperidine-1-carboxylic acid (4-pyridin-2-yl-phenyl)-amide] was tested, and the pIC50 ([1]; Homo sapiens, HCT-116, 72 h) was 7.00 and the “% inhib. 0.1 μM” value [2] was 50%.

For `N[C@H](CC(=O)N1CCC(CCCC(=O)NO)CC1)Cc1cccc2ccccc12` [Ex 154, 4-[1-(3-(S)-Amino-4-naphthalen-1-yl-butyryl)-piperidin-4-yl]-N-hydroxy-butyramide], the pIC50 ([1]; Homo sapiens, HCT-116, 72 h) was 6.28 and the “% inhib. 0.1 μM” value [2] was 82%.

`O=C(CCCC1CCN(C(=O)NCc2csc3ccccc23)CC1)NO` [Ex 157, N-(benzo[b]thiophen-3-ylmethyl)-4-(4-(hydroxyamino)-4-oxobutyl)piperidine-1-carboxamide] was tested, and the pIC50 ([1]; Homo sapiens, HCT-116, 72 h) was 6.22 and the “% inhib. 0.1 μM” value [2] was 68%.

`N[C@@H](CC(=O)N1CCC(CCCC(=O)NO)CC1)c1cccc2ccccc12` [Ex 158, 4-[1-(3-(S)-Amino-3-naphthalen-1-yl-propionyl)-piperidin-4-yl]-N-hydroxy-butyramide] was tested, and the pIC50 ([1]; Homo sapiens, HCT-116, 72 h) was 6.05 and the “% inhib. 0.1 μM” value [2] was 60%.

With `N[C@H](CC(=O)N1CCC(CCCC(=O)NO)CC1)c1cccc2ccccc12` [Ex 159, 4-[1-(3-(R)-Amino-3-naphthalen-1-yl-propionyl)-piperidin-4-yl]-N-hydroxy-butyramide] the pIC50 ([1]; Homo sapiens, HCT-116, 72 h) was 6.70 and the “% inhib. 0.1 μM” value [2] was 79%.

In the case of `COc1c(NC(=O)N2CCC(CCCC(=O)NO)CC2)ccc2ccccc12` [Ex 160], the pIC50 [1] was 6.70 and the “% inhib. 0.1 μM” value [2] was 67%.

`COc1cc2ccccc2cc1NC(=O)N1CCC(CCCC(=O)NO)CC1` [Ex 161] was tested, and the pIC50 [1] was 7.52 and the “% inhib. 0.1 μM” value [2] was 76%.

In the case of `O=C(CCCC1CCN(C(=O)CCNCc2ccccc2)CC1)NO` [Ex 164, 4-[1-(3-Benzylamino-propionyl)-piperidin-4-yl]-N-hydroxy-butyramide], the pIC50 ([1]; Homo sapiens, HCT-116, 72 h) was 6.22 and the “% inhib. 0.1 μM” value [2] was 51%.

For `O=C(CCCC1CCN(C(=O)Nc2ccc(-c3cccc(F)c3)cc2)CC1)NO` [Ex 165, 4-(3-Hydroxycarbamoyl-propyl)-piperidine-1-carboxylic acid (3′-fluoro-biphenyl-4-yl)-amide], the pIC50 ([1]; Homo sapiens, HCT-116, 72 h) was 6.15 and the “% inhib. 0.1 μM” value [2] was 64%.

`N[C@@H](CC(=O)N1CCC(CCCC(=O)NO)CC1)c1cccc(Cl)c1` [Ex 168, 4-{1-[3-(S)-Amino-3-(3-chloro-phenyl)-propionyl]-piperidin-4-yl}-N-hydroxy-butyramide] was tested, and the pIC50 [1] was 7.05 and the “% inhib. 0.1 μM” value [2] was 55%.

`O=C(CCCC1CCN(C(=O)NCCCc2c[nH]c3ccccc23)CC1)NO` [Ex 170, N-(3-(1H-indol-3-yl)propyl)-4-(4-(hydroxyamino)-4-oxobutyl)piperidine-1-carboxamide] was tested, and the pIC50 ([1]; Homo sapiens, HCT-116, 72 h) was 6.70 and the “% inhib. 0.1 μM” value [2] was 51%.

With `N[C@@H](CC(=O)N1CCC(CCCC(=O)NO)CC1)c1cccc(Cl)c1` [Ex 171, 4-{1-[3-(S)-Amino-3-(3-chloro-phenyl)-propionyl]-piperidin-4-yl}-N-hydroxy-butyramide] the pIC50 [1] was 6.40 and the “% inhib. 0.1 μM” value [2] was 45%.

With `N[C@@H](CC(=O)N1CCC(CCCC(=O)NO)CC1)c1cccc(F)c1` [Ex 175, 4-{1-[3-(S)-Amino-3-(3-fluoro-phenyl)-propionyl]-piperidin-4-yl}-N-hydroxy-butyramide] the pIC50 ([1]; Homo sapiens, HCT-116, 72 h) was 6.22 and the “% inhib. 0.1 μM” value [2] was 70%.

With `O=C(CCCC1CCN(C(=O)Nc2ccc(-c3csnn3)cc2)CC1)NO` [Ex 178, 4-(3-Hydroxycarbamoyl-propyl)-piperidine-1-carboxylic acid (4-[1,2,3]thiadiazol-4-yl-phenyl)-amide] the pIC50 ([1]; Homo sapiens, HCT-116, 72 h) was 6.52 and the “% inhib. 0.1 μM” value [2] was 45%.

`Cc1cc(C)n(-c2ccc(NC(=O)N3CCC(CCCC(=O)NO)CC3)cc2)n1` [Ex 179, 4-(3-Hydroxycarbamoyl-propyl)-piperidine-1-carboxylic acid [4-(3,5-dimethyl-pyrazol-1-yl)-phenyl]-amide] was tested, and the pIC50 ([1]; Homo sapiens, HCT-116, 72 h) was 6.30 and the “% inhib. 0.1 μM” value [2] was 70%.

In the case of `Nc1ccc2cc(NC(=O)N3CCC(CCCC(=O)NO)CC3)ccc2c1` [Ex 181, N-(6-aminonaphthalen-2-yl)-4-(4-(hydroxyamino)-4-oxobutyl)piperidine-1-carboxamide], the pIC50 ([1]; Homo sapiens, HCT-116, 72 h) was 6.33 and the “% inhib. 0.1 μM” value [2] was 64%.

`O=C(CCCC1CCN(C(=O)CCNc2cccc3ccccc23)CC1)NO` [Ex 186, 4-[1-(3-(1)Naphtylamino-propionyl)-piperidin-4-yl]-N-hydroxy-butyramide] was tested, and the pIC50 [1] was 6.44 and the “% inhib. 0.1 μM” value [2] was 81%.

For `O=C(CCCC1CCN(C(=O)NCc2csc3ccc(Cl)cc23)CC1)NO` [Ex 188, N-(5-Chloro-benzo[b]thiophen-3-ylmethyl)-4-(4-(hydroxyamino)-4-oxobutyl)piperidine-1-carboxamide], the pIC50 ([1]; Homo sapiens, HCT-116, 72 h) was 6.68 and the “% inhib. 0.1 μM” value [2] was 50%.

`O=C(CCCC1CCN(C(=O)NCc2ccc(-c3ccsc3)cc2)CC1)NO` [Ex 190, N-(4-(thiophen-3-yl)benzyl)-4-(4-(hydroxyamino)-4-oxobutyl)piperidine-1-carboxamide] was tested, and the pIC50 ([1]; Homo sapiens, HCT-116, 72 h) was 6.32 and the “% inhib. 0.1 μM” value [2] was 69%.

`O=C(CCCC1CCCN(C(=O)Nc2ccccc2)C1)NO` (centres unmarked) [Ex 192, 3-(4-(hydroxyamino)-4-oxobutyl)-N-phenylpiperidine-1-carboxamide] was tested, and the pIC50 ([1]; Homo sapiens, HCT-116, 72 h) was 6.22 and the “% inhib. 0.1 μM” value [2] was 68%.

`N[C@@H](CC(=O)N1CCC(CCCC(=O)NO)CC1)C(=O)NCc1ccccc1` [Ex 193, 2-(s)-Amino-N-benzyl-4-[4-(3-hydroxycarbamoyl-propyl)-piperidin-1-yl]-4-oxo-butyramide] was tested, and the pIC50 ([1]; Homo sapiens, HCT-116, 72 h) was 6.05 and the “% inhib. 0.1 μM” value [2] was 50%.

For `O=C(CCCC1CCN(C(=O)Nc2cc3ccccc3s2)CC1)NO` [Ex 195, N-(benzo[b]thiophene)-4-(4-(hydroxyamino)-4-oxobutyl)piperidine-1-carboxamide], the pIC50 [1] was 6.40 and the “% inhib. 0.1 μM” value [2] was 42%.

In the case of `O=C(CCCC1CCN(C(=O)Nc2cccc3c2CCCC3)CC1)NO` [Ex 198, 4-(3-Hydroxycarbamoyl-propyl)-piperidine-1-carboxylic acid (5,6,7,8-tetrahydro-naphthalen-1-yl)-amide], the pIC50 ([1]; Homo sapiens, HCT-116, 72 h) was 6.40 and the “% inhib. 0.1 μM” value [2] was 77%.
